Experiment [1] relates to GP2 (DNA, aptamer) GGAGGCTCTCGGGACGACGGTGTGGCCCGTGGTGTCACTAATGAAGGGATTCATTTCAGTCGTCCCGATGCTGCAATCGTAA
Briefly: structure-switching fluorescence titration. As to conditions: 500 mM NaCl, 10 mM MgCl2, 5 mM KCl; 20 mM HEPES pH 7.4, room temperature; dabcyl-cDNA displaced; ligand stocks up to 200 mM.

For experiment [2], the system named is GP1 (DNA, aptamer) GGAGGCTCTCGGGACGACGGGAGCATCATTCTGAGTGTTATGTGGATTGATACGTCTGGTCGTCCCGATGCTGCAATCGTAA
Briefly: structure-switching fluorescence titration. As to conditions: 500 mM NaCl, 10 mM MgCl2, 5 mM KCl; 20 mM HEPES pH 7.4, room temperature; dabcyl-cDNA displaced; ligand stocks up to 200 mM.

Experiment [3] has the same test system. Briefly: structure-switching fluorescence titration, Kd = Kd,eff1/Kd,eff2. The following applies: 500 mM NaCl, 10 mM MgCl2, 5 mM KCl; 20 mM HEPES pH 7.4, ~23 °C; dabcyl-cDNA displaced (sequence not in text); 50 nM each strand.
The test system of experiment [4] is GP2 (DNA, aptamer) GGAGGCTCTCGGGACGACGGTGTGGCCCGTGGTGTCACTAATGAAGGGATTCATTTCAGTCGTCCCGATGCTGCAATCGTAA
The experiment is described as above. As to conditions: 500 mM NaCl, 10 mM MgCl2, 5 mM KCl; 20 mM HEPES pH 7.4, ~23 °C; dabcyl-cDNA displaced (sequence not in text); 50 nM each strand.

The text below walks through data of PMC6155188 (2017).

With `OC[C@H]1OC(O)[C@H](O)[C@@H](O)[C@@H]1O` (stereo partly drawn), the binding result in experiment [1] and in experiment [2] was “no” throughout.
For `COC(=O)C1=CO[C@@H](O)[C@@H]2C(CO)=CC[C@H]12`, the binding result in experiment [1] and in experiment [2] was “no” in each case.
As for `COC(=O)C1=CO[C@@H](O[C@@H]2O[C@H](CO)[C@@H](O)[C@H](O)[C@H]2O)[C@@H]2C(CO)=CC[C@H]12`, the Kd was ~ 6.1 μM in experiment [3] and ~ 2.0 μM in experiment [4].
